How the values were obtained:
11β-hsd-1 enzyme [1] = target: T1, 11β-hsd-1 enzyme (Homo sapiens, UniProt P28845); experiment: 11β-hsd-1 enzyme assay, Kiapp determination (3H-cortisone to cortisol, radio-HPLC); type: biochemical; conditions: read-out: Ki app
11β-hsd-1 enzyme [2] = target: T1, 11β-hsd-1 enzyme; experiment: 11β-hsd-1 enzyme assay, percentage of inhibition (3H-cortisone to cortisol, radio-HPLC); type: biochemical; conditions: 0.1 uM; for inhibition at 0.1 µM: read-out: % inh @ 0.1 uM

T1 sequence (P28845 whole entry, species assumed): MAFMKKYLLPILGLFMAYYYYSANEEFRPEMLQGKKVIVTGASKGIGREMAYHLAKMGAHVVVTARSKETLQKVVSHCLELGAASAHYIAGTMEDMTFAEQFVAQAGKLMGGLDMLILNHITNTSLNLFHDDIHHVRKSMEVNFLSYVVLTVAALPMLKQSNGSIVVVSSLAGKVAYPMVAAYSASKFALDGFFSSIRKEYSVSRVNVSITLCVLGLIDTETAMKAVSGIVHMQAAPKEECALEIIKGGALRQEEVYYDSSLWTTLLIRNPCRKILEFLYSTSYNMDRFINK

| Ki (11β-hsd-1 enzyme [1]) | inhibition at 0.1 µM (11β-hsd-1 enzyme [2]) | % inh @ 0.1 uM (11β-hsd-1 enzyme [2]) | Structure (SMILES) |
| --- | --- | --- | --- |
| 16 nM | 85.4% |  | CCOC(=O)Cc1cccc(NS(=O)(=O)c2ccc(-c3ccc(C#N)cc3)cc2)n1 [Example 2] |
| 108 nM | 98% |  | Cc1cccc(NS(=O)(=O)c2ccc(C(F)(F)F)cc2)n1 [Example 35] |
| 48 nM | 52% |  | Cc1cccc(NS(=O)(=O)c2ccc(-c3ccccc3)cc2)n1 [Example 36] |
| 84 nM | 45% |  | Cc1cccc(NS(=O)(=O)c2ccc3ccccc3c2)n1 [Example 37] |
| 4.3 nM | 98% |  | Nc1cccc(NS(=O)(=O)c2ccc(-c3ccccc3)cc2)n1 [Example 40] |
| 4.6 nM | 96% |  | Nc1cccc(NS(=O)(=O)c2ccc(-c3ccc(Cl)cc3)cc2)n1 [Example 42] |
| 8.1 nM | 98% |  | Nc1cccc(NS(=O)(=O)c2ccc(-c3ccc(F)cc3)cc2)n1 [Example 43] |
| 14.5 nM | 90% |  | O=S(=O)(Nc1ccc2ccccc2n1)c1ccc(-c2ccc(F)cc2)cc1 [Example 48] |
| 18.3 nM | 59.4% |  | Cc1cc(C)nc(NS(=O)(=O)c2ccc(-c3ccccc3)cc2)c1 [Example 65] |
| 216 nM | 78.7% |  | Cc1cccc(NS(=O)(=O)c2ccc(C(C)C)cc2)n1 [Example 70] |
| 42.3 nM | 70% |  | Cc1cccc(NS(=O)(=O)c2ccc3ccc(Cl)cc3c2)n1 [Example 93] |
| 4.4 nM | 100% |  | Nc1cccc(NS(=O)(=O)c2ccc(-c3ccc(C(F)(F)F)cc3)cc2)n1 [Example 95] |
| 7 nM | 100% |  | Cc1cc(C)nc(NS(=O)(=O)c2ccc(-c3ccc(C#N)cc3)cc2)c1 [Example 96] |
| < 1 nM | 100% |  | Cc1cccc(NS(=O)(=O)c2ccc3c(Cl)cccc3c2)n1 [Example 102] |
| 1.9 nM | 100% |  | N#Cc1ccc(-c2ccc(S(=O)(=O)Nc3cccc(C4CC4)n3)cc2)cc1 [Example 112, 4′-Cyano-biphenyl-4-sulfonic acid (6-cyclopropyl-pyridin-2-yl)-amide] |
| 26.2 nM | 84.8% |  | N#Cc1ccc(-c2ccc(S(=O)(=O)Nc3cccc(CCO)n3)cc2)cc1 [Example 117] |
| 19.7 nM | 86.8% |  | Cc1cccc(NS(=O)(=O)c2ccc(-c3ccc(F)cc3)cc2)n1 [Example 128] |
| 24.7 nM | 84.8% |  | Cc1cccc(NS(=O)(=O)c2ccc(-c3cccc(F)c3)cc2)n1 [Example 133] |
| 36.2 nM | 66.8% |  | COc1cccc(-c2ccc(S(=O)(=O)Nc3cccc(C)n3)cc2)c1 [Example 160] |
| 22.5 nM | 90.3% |  | COc1ccc(-c2ccc(S(=O)(=O)Nc3cccc(C)n3)cc2)cc1 [Example 161] |
| 21 nM | 89% |  | COc1cccc(-c2ccc(S(=O)(=O)Nc3cccc(C)n3)c(C)c2)c1 [Example 162] |
| 8 nM | 97% |  | Cc1cccc(NS(=O)(=O)c2ccc(-c3cccc(Cl)c3)cc2C)n1 [Example 163] |
| 13 nM | 93% |  | Cc1cccc(NS(=O)(=O)c2ccc(-c3ccccc3Cl)cc2C)n1 [Example 164] |

The remaining lines, values behind:

| Structure (SMILES) | Ki (11β-hsd-1 enzyme [1]) | inhibition at 0.1 µM (11β-hsd-1 enzyme [2]) | % inh @ 0.1 uM (11β-hsd-1 enzyme [2]) |
| --- | --- | --- | --- |
| CCOC(=O)Cc1cccc(NS(=O)(=O)c2cccc(Cl)c2C)n1 [Example 1, Ethyl [6-(3-Chloro-2-methyl-benzenesulfonylamino)-pyridin-2-yl]-acetate] | 42 nM | 72.3% |  |
| CCOC(=O)Cc1cccc(NS(=O)(=O)c2sc3ccc(Cl)cc3c2C)n1 [Example 6] | 2.8 nM | 100% |  |
| CCN(CC)C(=O)Cc1cccc(NS(=O)(=O)c2sc3ccc(Cl)cc3c2C)n1 [Example 19, 2-[6-(5-Chloro-3-methyl-benzo[b]thiophene-2-sulfonylamino)-pyridin-2-yl]-N,N-diethyl-acetamide] | 4.8 nM | 96.9% |  |
| CCN(CC)C(=O)Cc1cccc(NS(=O)(=O)c2ccc3ccccc3c2)n1 [Example 22] | 170 nM | 44.7% |  |
| Cc1cccc(NS(=O)(=O)c2ccc(-c3ccc(C#N)cc3)cc2)n1 [Example 33, 4′-Cyano-biphenyl-4-sulfonic acid (6-methyl-pyridin-2-yl)-amide] | 6.4 nM | 97% |  |
| Cc1cccc(NS(=O)(=O)c2cccc(Cl)c2C)n1 [Example 34] | 169 nM | 48.8% |  |
| Cc1cccc(NS(=O)(=O)c2cccc(Cl)c2C)n1 [Example 38] | 169 nM |  | 49% |
| Nc1cccc(NS(=O)(=O)c2ccc(C(F)(F)F)cc2)n1 [Example 39] | 9 nM | 96% |  |
| Cc1c(Cl)cccc1S(=O)(=O)Nc1cccc(N)n1 [Example 41] | 17 nM | 94% |  |
| Cc1cccc(NS(=O)(=O)c2sc3ccc(Cl)cc3c2C)n1 [Example 46] | 3.2 nM | 98% |  |
| CCc1cccc(NS(=O)(=O)c2cccc(Cl)c2C)n1 [Example 56] | 47.6 nM | 66.8% |  |
| COc1ccc(NS(=O)(=O)c2sc3ccc(Cl)cc3c2C)nn1 [Example 68] | 8.3 nM | 100% |  |
| CCc1cccc(NS(=O)(=O)c2sc3ccc(Cl)cc3c2C)n1 [Example 69] | 1.1 nM | 100% |  |
| CCc1cccc(NS(=O)(=O)c2ccc(C(F)(F)F)cc2)n1 [Example 71] | 34.6 nM | 66% |  |
| Cc1cccc(NS(=O)(=O)c2cc3ccccc3s2)n1 [Example 72] | 30.9 nM | 74.6% |  |
| N#Cc1ccc(-c2ccc(S(=O)(=O)Nc3ccc4occc4n3)cc2)cc1 [Example 86] | 14.3 nM | 100% |  |
| N#Cc1ccc(-c2ccc(S(=O)(=O)Nc3ccc4ccccc4n3)cc2)cc1 [Example 87] | 3.6 nM | 100% |  |
| Cc1cccc(NS(=O)(=O)c2sc3ccc(C#N)cc3c2C)n1 [Example 91] | 2.3 nM | 100% |  |
| Cc1cccc(NS(=O)(=O)c2sc3ccc(F)cc3c2C)n1 [Example 103] | < 1 nM | 100% |  |
| CCc1cccc(NS(=O)(=O)c2sc(-c3ccccc3)nc2C)n1 [Example 104] | 23 nM | 89.6% |  |
| Cc1c(S(=O)(=O)Nc2cccc(N)n2)sc2ccc(Cl)cc12 [Example 107] | < 1 nM | 100% |  |
| Cc1cccc(NS(=O)(=O)/C=C/c2ccccc2)n1 [Example 109] | 270 nM | 57.2% |  |
| Cc1c(S(=O)(=O)Nc2cccc(CCO)n2)sc2ccc(Cl)cc12 [Example 115, 5-Chloro-3-methyl-benzo[b]thiophene-2-sulfonic acid [6-(2-hydroxy-ethyl)-pyridin-2-yl]-amide] | 4.8 nM | 93.6% |  |
| Cc1cccc(NS(=O)(=O)c2sc(-c3ccc(C#N)cc3)nc2C)n1 [Example 118, 2-(4-Cyano-phenyl)-4-methyl-thiazole-5-sulfonic acid (6-methyl-pyridin-2-yl)-amide] | 2.5 nM | 100% |  |
| CCc1cccc(NS(=O)(=O)c2sc(-c3ccc(C#N)cc3)nc2C)n1 [Example 119] | 3.1 nM | 95% |  |

Reference: patent US20050148631A1, “Amino heterocyclyl inhibitors of 11-beta-hydroxy steroid dehydrogenase type 1” (AGOURON PHARMACEUTICALS, INC., priority 2003, published 2005)
